| SMILES | melting point [°C] |
| --- | --- |
| N#CCN1C(=O)N(c2ccc(C#N)c(C(F)(F)F)c2)C(=O)C12CCOCC2 | 210 to 211 |
| CCC[C@H](NC(=O)OCc1ccccc1)C(=O)C(N)P(=O)(OC)OC (stereo not given in full) | 82 to 84 |
| CN1CCC(c2c[nH]c3ccc(C(=O)c4ccccc4)cc23)CC1 | 101 |
| CN(C)C1(Cc2ccccc2)CCC(O)(c2cc3ccccc3o2)CC1 (stereo not given) | 121 to 124 |
| Cc1cc(C)c2c(n1)N(CCCCl)c1ccccc1N(C)C2=O | 161 to 163 |
| O=C1CCCN1[C@@H]1c2ccccc2OCC[C@H]1O (relative stereo) | 151 to 153 |
| CCc1cc(CC)c2ccc(N)nc2n1 | 187 to 189 |
| CCCCCCCCCCCCCCCCCCOc1cc(NC(C)=O)cc([N+](=O)[O-])c1 | 103 to 107 |
| Cc1noc(=O)c2ccc(NC(=O)C(=O)CC3(c4ccccc4)CC3)cc12 | 155 to 156 |
| CCOP(=O)(CCCCC1(C(=O)NCC(F)(F)F)c2ccccc2-c2ccccc21)OCC | 87 to 89 |
| COCCOC(=O)c1c(-c2ccncc2)[nH]c(-c2ccncc2)c1C | 174 to 177 |
| CCCCCCOC(=O)Oc1ccc(-c2ccc(C#N)cc2)cc1 | 87.1 to 87.5 |
| O=c1ccn(CCO)c(Cc2ccccc2)c1O | 228 to 230 |
| O=[N+]([O-])c1ccc2c(c1)CN[C@H](CO)C2 | 184 |
| COC(=O)c1ccc(CCNCC(O)c2ccccc2)cc1 (stereo not given) | 105 to 106 |
| CN(O)C(=O)c1ccc(OCCOc2ccccc2)cc1 | 134 to 136 |
| CC(c1ccc(C#N)nc1)C(O)(Cn1cncn1)c1ccc(F)cc1F (stereo not given) | 136 to 141 |
| OCCOCc1c(Br)c(Br)c(COCCO)c(Br)c1Br | 145 to 147 |
| NC(=O)C1CCc2[nH]c3ccc(OC(F)(F)F)cc3c2C1 (stereo not given) | 177 to 178 |
| CNCCCc1cc(C(=O)Nc2ccc(-c3ccc(C(C)=O)cc3)cc2)ccc1OC | 195 to 196 |
| CC(=O)c1cccc(Nc2nnc(-c3cccc(Oc4cccc(C(F)(F)F)c4)c3)s2)c1 | 130 to 133 |
| COc1c(C2CCN(CCCCNC(=O)c3ccc(-c4ccc(Cl)nn4)cc3)CC2)ccc2c1CCCC2 | 192 to 194 |
| CCN(CC)C(=O)c1ccc[nH]1 | 78.6 to 79.9 |
| CC(C)(C)OC(=O)C(Cl)=CC1C(C(=O)OC(C#N)c2ccc(F)c(Oc3ccccc3)c2)C1(C)C (stereo not given) | 94 |
| O=C(N[C@H](Cc1ccc(C(F)(F)F)cc1)[C@@H](O)c1ccc(F)cc1)c1ccnc2ccccc12 (racemic) | 227 to 228 |
| Cc1ccc(SC(C#N)c2cccc(C(=O)c3ccccc3)c2)cc1 (stereo not given) | 79 to 79.5 |
| CCCCCCCCCCCCCC(=O)Nc1ccc(Cl)c(NC(=CC(=O)OCC)NNc2c(Cl)cc(Cl)cc2Cl)c1 | 91 to 93 |
| C[C@H]1N(C(=O)c2ccc(C(F)(F)F)cc2)CC(F)O[C@@]1(Cn1cncn1)c1ccc(Cl)cc1Cl (relative stereo) | 151 to 156 |
| CN(Cc1ccc2c(Br)c(O)ccc2c1)C(=O)c1oc2ccccc2c1CCc1ccccc1 | 108 to 110 |

Now from value to compound:

| melting point [°C] | SMILES |
| --- | --- |
| > 350 | Cn1c(=O)c2nc(-c3ccc(/C=C/C(=O)O)cc3)[nH]c2n(Cc2ccc(C#N)cc2)c1=O |
| 183 to 184 | C=CCNC(=Nc1ccc(-c2c[nH]cn2)cc1)S(=O)(=O)O |
| 163 | COc1ccccc1CNc1ccc2cc(Nc3ncccc3C)ccc2n1 |
| 113 to 116 | Nc1cc2cccnc2c(Cc2ccccc2)n1 |
| 119 | Cc1cccc(-c2nccc(-c3ccccc3C)n2)n1 |
| 120 | O=C(Nc1ccc(Cl)cc1)C(O)c1ccccc1Cl (stereo not given) |
| 171 to 172 | CC1(C)OC(=O)C(Oc2ccc3ncccc3c2)=C1c1ccc(S(C)(=O)=O)cc1 |
| 132 to 133 | CC(=O)NC1CCC(=O)C(=CN(C)C)C1 (stereo not given) |
| 70.5 to 71.2 | CC(C)(C)OC(=O)NCCc1ccnc(C#N)c1 |
| 196 to 198 | COc1ccc(N2C(=O)C(C)N(c3ccc(Oc4ccc(O)cc4)cc3)C2=S)cc1 (stereo not given) |
| 146 to 148 | CCOC(=O)C1CCn2c1cc(C)c2C(=O)c1ccc2n1CCS2 (stereo not given) |
| 99 to 100 | O=C(CCc1ccc(OCc2ccccc2)cc1)c1ncc(-c2ccccn2)o1 |
| 255 | O=C1NC(=O)C(=Cc2ccc3c(c2)CCC(Cc2ccccc2)O3)S1 (single isomer, unassigned; (-)) |
| 102 to 103 | N#Cc1ccc(-c2c[nH]nc2C(F)(F)F)cc1SCC1CCC1 |
| 128 to 130 | O=C1O[C@@H](CNC(=S)C(F)F)CN1c1ccc(N2CCCS(=O)(=O)CC2)c(F)c1 |
| 105 to 107 | Cc1ccc(Sc2ccc(C(=O)O)cc2)cc1 |
| 91 to 95 | NC(=O)[C@@H]1CCCN1C(=O)CNP(=O)(Cc1ccccc1)Cc1ccccc1 |
| 82 to 86 | COc1ccc(CC(O)CO)c(OCc2ccccc2)c1 (stereo not given) |
| 249 to 251 | COc1cc(-c2ccc3cnc(Nc4ccc(C5CCN(CC(N)=O)CC5)cc4)nn23)c(OC)nn1 |
| 182 to 183 | CNC(=O)c1cnn(-c2ccc(Cl)cc2Cl)c1C#N |
| 313 to 315 | Cc1cc(-n2cc(-c3ccc(S(C)=O)cc3)nc2C)cc2ccc(=O)[nH]c12 (stereo not given) |

| melting point [°C] | SMILES |
| --- | --- |
| 203 to 205 | CC(C)OC(=O)c1cc(-n2c(=O)[nH]c3c(c2=O)CCCC3)c(F)cc1Cl |
| 114 | CC1(C)CCC(C)(C)c2cc(C=O)c(Br)cc21 |
| 209 to 210 | COc1cc(C(=O)N2Cc3ccccc3Cc3ccccc32)ccc1NC(=O)c1ccccc1C |
| 146 | COc1ccccc1CN=C(Cc1ccccc1)N1CC2C(=O)CCC(c3ccccc3)(c3ccccc3)C2C1 (stereo not given) |
| 133 to 134 | CCOC(=O)c1cc(C=O)[nH]n1 |
| 149 to 150 | Nc1ncc(Br)n2nc(SCc3ccccc3)nc12 |
| 168 to 175 | CC(CCCC(C)(C)O)C1CCC2C3CC=C4CC(O)CCC4(C)C3CCC12C (stereo not given) |
| 51 to 53 | OCc1nccc(N2CCCCC2)c1Br |
| 244 | O=C(c1[nH]ncc1-c1csc(Nc2ncccn2)n1)C1CC1 |
| 196 to 198 | O=C(NCc1ccc(O)cc1)C12CC3CC(CC(C3)C1)C2 |
| 138 to 139 | COC(=O)c1cc(-c2ccc(F)c(C)c2)nn(CC=Cc2ccc(Cl)cc2)c1=O |
| 98 to 99 | CCCSc1ncc(CCCC(=O)O)n1Cc1ccccc1Cl |
| 98 | CCS(=O)(=O)c1ncc(C(F)(F)F)cn1 |
| 251 | COc1ccc2[nH]c(C(=O)N[C@H]3CCN(C(=O)c4cc(Cl)cc(Cl)c4)[C@H](Cc4ccccc4)C3)cc2c1 (relative stereo) |
| 193 to 195 | Cc1cc(C(=O)NC2=NC(C)(C)CC2(c2ccccc2)c2ccccc2)[nH]n1 |
| 195 to 196 | COc1ccc(S(=O)(=O)NCC(C(=O)NO)C2(CC(C)C)CCN(CCc3ccccc3)C2=O)cc1 (stereo not given) |
| 186 | O=C1c2ccccc2C(=O)N1CC1=Nc2ccccc2N(Cc2ccccc2)C(=O)C1 |
| 220 to 223 | CC1CC(=O)NN=C1c1ccc2c(c1)N(C1CCCC1)C(=O)C(C)O2 (stereo not given) |
| 114 to 115 | COc1nc(C)c(C(C)=O)cc1NC(=S)N1CCN(c2cccc(O)c2)CC1 |
| 187 to 190 | O=c1c(-c2ccccc2)c(Cn2cnc3c(Cl)ncnc32)oc2ccccc12 |
